In patent US9000159B2 (Glenmark Pharmaceuticals, S.A., priority 2009, dated 2015):

Molecular target: T1, Human TRPA1 (Homo sapiens, UniProt O75762)
T1 construct: expressed in transfected cells; host or cells: CHO cells
Assay: 45Calcium uptake assay: inhibition of AITC induced cellular uptake of radioactive calcium
Type: cell-based
Details: AITC (30 μM) induced 45Ca uptake, Human TRPA1 expressing CHO cells; for inhibition at 1 µM: 1.0 μM test compound, read-out: Percentage inhibition at 1.0 μM; for inhibition at 10 µM: 10.0 μM test compound, read-out: Percentage inhibition at 10.0 μM; for IC50: read-out: Human IC50 value (range)
Procedure, shortened: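 CHO cells stably expressing human TRPA1 (~50,000/well) preincubated 10 min with compound (0.5% DMSO, medium with 0.1% BSA, 1.8 mM CaCl2), then 30 μM AITC plus 5 μCi/ml 45Ca2+ for 3 min. Lysate radioactivity counted by scintillation; IC50 by nonlinear regression of % maximal uptake.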

T1 sequence (O75762 whole entry): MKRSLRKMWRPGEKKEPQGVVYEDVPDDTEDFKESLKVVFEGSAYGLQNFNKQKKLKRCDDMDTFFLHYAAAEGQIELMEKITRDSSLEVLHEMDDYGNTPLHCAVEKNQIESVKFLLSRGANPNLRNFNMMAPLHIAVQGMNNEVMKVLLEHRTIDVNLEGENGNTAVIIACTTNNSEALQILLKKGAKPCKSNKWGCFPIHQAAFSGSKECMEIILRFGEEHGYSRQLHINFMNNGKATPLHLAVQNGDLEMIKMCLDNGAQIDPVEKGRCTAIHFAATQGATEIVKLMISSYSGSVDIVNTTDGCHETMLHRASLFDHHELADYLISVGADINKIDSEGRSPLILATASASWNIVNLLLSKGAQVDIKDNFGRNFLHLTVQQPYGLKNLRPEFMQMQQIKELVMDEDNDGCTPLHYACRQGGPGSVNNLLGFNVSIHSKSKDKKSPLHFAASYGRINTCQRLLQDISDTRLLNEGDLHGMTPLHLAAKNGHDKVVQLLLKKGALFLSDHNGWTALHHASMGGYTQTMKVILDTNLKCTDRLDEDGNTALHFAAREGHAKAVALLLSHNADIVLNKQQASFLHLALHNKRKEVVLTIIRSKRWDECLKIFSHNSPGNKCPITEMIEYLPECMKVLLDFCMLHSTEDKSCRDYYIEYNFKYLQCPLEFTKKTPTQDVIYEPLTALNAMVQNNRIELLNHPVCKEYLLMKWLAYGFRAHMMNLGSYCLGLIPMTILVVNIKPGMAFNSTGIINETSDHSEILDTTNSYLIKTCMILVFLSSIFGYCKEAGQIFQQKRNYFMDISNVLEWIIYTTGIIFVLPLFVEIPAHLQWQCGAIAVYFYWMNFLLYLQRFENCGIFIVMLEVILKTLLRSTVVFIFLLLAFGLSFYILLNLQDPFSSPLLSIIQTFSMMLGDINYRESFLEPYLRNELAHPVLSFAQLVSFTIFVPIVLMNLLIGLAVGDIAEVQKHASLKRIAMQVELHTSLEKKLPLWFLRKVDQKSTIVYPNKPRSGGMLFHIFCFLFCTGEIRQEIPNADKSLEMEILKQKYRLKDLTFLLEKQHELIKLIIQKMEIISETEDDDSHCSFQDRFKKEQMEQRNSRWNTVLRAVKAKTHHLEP

SMILES | inhibition at 1 µM [%] | inhibition at 10 µM [%] | IC50 [nM]
Cn1c(=O)c2c(ccn2CC(=O)Nc2nc(-c3ccc(Cl)c(C(F)(F)F)c3)cs2)n(C)c1=O [Example 4, 2-(1,3-Dimethyl-2,4-dioxo-1,2,3,4-tetrahydro-5H-pyrrolo[3,2-d]pyrimidin-5-yl)-N-{4-[4-chloro-3-(trifluoromethyl)phenyl]-1,3-thiazol-2-yl}acetamide] | 34.4 | 89.8 | 
Cn1c(=O)c2c(cnn2CC(=O)Nc2nc(-c3cc(F)c(OCC4CCC4)c(F)c3)cs2)n(C)c1=O [Example 81, N-{4-[4-(Cyclobutylmethoxy)-3,5-difluorophenyl]-1,3-thiazol-2-yl}-2-(4,6-dimethyl-5,7-dioxo-4,5,6,7-tetrahydro-1H-pyrazolo[4,3-d]pyrimidin-1-yl)acetamide] | 94 | 100 | < 50
Cn1nc2c(c1CC(=O)Nc1nc(-c3ccc(F)c(OC(F)(F)F)c3)cs1)c(=O)n(C)c(=O)n2C [Example 60, N-{4-[4-Fluoro-3-(trifluoromethoxy)phenyl]-1,3-thiazol-2-yl}-2-(2,5,7-trimethyl-4,6-dioxo-4,5,6,7-tetrahydro-2H-pyrazolo[3,4-d]pyrimidin-3-yl)acetamide] | 93.4 | 97.2 | < 50
Cn1c(=O)c2c(ccn2CC(=O)Nc2nc(-c3cc(F)c(OCC(F)(F)F)c(Cl)c3)cs2)n(C)c1=O [Example 16, N-{4-[3-Chloro-5-fluoro-4-(2,2,2-trifluoroethoxy)phenyl]-1,3-thiazol-2-yl}-2-(1,3-dimethyl-2,4-dioxo-1,2,3,4-tetrahydro-5H-pyrrolo[3,2-d]pyrimidin-5-yl)acetamide] | 95 | 97.1 | < 50
CC(C)COc1c(Cl)cc(-c2csc(NC(=O)Cn3ncc4c3c(=O)n(C)c(=O)n4C)n2)cc1Cl [Example 75, N-[4-(3,5-Dichloro-4-isobutoxyphenyl)-1,3-thiazol-2-yl]-2-(4,6-dimethyl-5,7-dioxo-4,5,6,7-tetrahydro-1H-pyrazolo[4,3-d]pyrimidin-1-yl)acetamide] | 99.3 | 100 | < 50
Cn1c(=O)c2c(ccn2CC(=O)Nc2nc(-c3cc(F)c(OC(F)F)c(F)c3)cs2)n(C)c1=O [Example 10, N-{4-[4-(Difluoromethoxy)-3,5-difluorophenyl]-1,3-thiazol-2-yl}-2-(1,3-dimethyl-2,4-dioxo-1,2,3,4-tetrahydro-5H-pyrrolo[3,2-d]pyrimidin-5-yl)acetamide] | 91 | 95.3 | 50 to 100
CN(C)Cc1cn(CC(=O)Nc2nc(-c3ccc(C(F)(F)F)c(F)c3)cs2)c2c(=O)n(C)c(=O)n(C)c12 [Example 38, N-{4-[3-Fluoro-4-(trifluoromethyl)phenyl]-1,3-thiazol-2-yl}-2-{7-[(dimethylamino)methyl]-1,3-dimethyl-2,4-dioxo-1,2,3,4-tetrahydro-5H-pyrrolo[3,2-d]pyrimidin-5-yl}acetamide] | 57 | 97.8 | 
Cn1nc2c(c1CC(=O)Nc1nc(-c3ccc(F)c(F)c3)cs1)c(=O)n(C)c(=O)n2C [Example 51, N-[4-(3,4-Difluorophenyl)-1,3-thiazol-2-yl]-2-(2,5,7-trimethyl-4,6-dioxo-4,5,6,7-tetrahydro-2H-pyrazolo[3,4-d]pyrimidin-3-yl)acetamide] | 57.5 | 79.7 | 
Cc1cc2c(c(=O)n(C)c(=O)n2C)n1CC(=O)Nc1nc(-c2ccc(F)c(C(F)(F)F)c2F)cs1 [Example 25] | 68.3 | 94.8 | 
Cn1nc2c(c1CC(=O)Nc1nc(-c3ccc(F)cc3F)cs1)c(=O)n(C)c(=O)n2C [Example 50, N-[4-(2,4-Difluorophenyl)-1,3-thiazol-2-yl]-2-(2,5,7-trimethyl-4,6-dioxo-4,5,6,7-tetrahydro-2H-pyrazolo[3,4-d]pyrimidin-3-yl)acetamide] | 0 | 19.8 | 
